Results: publication PMC5218480 (PLoS ONE, 2017)

Tested on: MV-4-11 cells
Assay: Gene expression microarray analysis (Affymetrix PrimeView) and GSEA
Assay type: cell-based, human
Set-up: RFU PODN (11730768_x_at) / Fold change /veh PODN (11730768_x_at) / RFU LINC00158 (11744669_a_at) / Fold change /veh LINC00158 (11744669_a_at) / RFU DUSP10 (11751237_a_at) / Fold change /veh DUSP10 (11751237_a_at) / RFU ID3 (11757404_x_at) / Fold change /veh ID3 (11757404_x_at) / RFU PLEKHG5 (11737974_s_at) / Fold change /veh PLEKHG5 (11737974_s_at) / RFU LRRC4B (11730491_at) / Fold change /veh LRRC4B (11730491_at) / RFU GIMAP4 (11747438_a_at) / Fold change /veh GIMAP4 (11747438_a_at) / RFU KRT8 (11758183_x_at) / Fold change /veh KRT8 (11758183_x_at) / RFU CNN1 (11734310_a_at) / Fold change /veh CNN1 (11734310_a_at) / RFU VPS37D (11726825_at) / Fold change /veh VPS37D (11726825_at) / RFU C10orf10 (11716522_x_at) / Fold change /veh C10orf10 (11716522_x_at) / RFU KIR2DL2 /// KIR2DL4 /// KIR2DL5A /// KIR2DL5B /// KIR2DS1 /// KIR2DS2 /// KIR2DS3 /// KIR2DS4 /// KIR3DL3 /// KIR3DL3 /// KIR3DS1 (11738374_at) / Fold change /veh KIR2DL2 /// KIR2DL4 /// KIR2DL5A /// KIR2DL5B /// KIR2DS1 /// KIR2DS2 /// KIR2DS3 /// KIR2DS4 /// KIR3DL3 /// KIR3DL3 /// KIR3DS1 (11738374_at) / RFU C1QL1 (11718748_at) / Fold change /veh C1QL1 (11718748_at) / RFU TMPRSS4 (11747572_a_at) / Fold change /veh TMPRSS4 (11747572_a_at) / RFU HAMP (11756126_x_at) / Fold change /veh HAMP (11756126_x_at) / RFU RNFT2 (11725882_a_at) / Fold change /veh RNFT2 (11725882_a_at) / RFU NR4A2 (11747474_a_at) / Fold change /veh NR4A2 (11747474_a_at) / RFU ABCC12 (11746883_a_at) / Fold change /veh ABCC12 (11746883_a_at) / RFU TMEM136 (11760407_x_at) / Fold change /veh TMEM136 (11760407_x_at) / RFU CLDN22 /// WWC2 (11732394_at) / Fold change /veh CLDN22 /// WWC2 (11732394_at) / RFU HLA-DPB1 (11760878_x_at) / Fold change /veh HLA-DPB1 (11760878_x_at) / RFU SPINT1 (11716480_a_at) / Fold change /veh SPINT1 (11716480_a_at) / RFU GAP43 (11754022_s_at) / Fold change /veh GAP43 (11754022_s_at) / RFU A4GNT (11735810_at) / Fold change /veh A4GNT (11735810_at) / RFU PRB3 (11715151_x_at) / Fold change /veh PRB3 (11715151_x_at) / RFU TUBB4B (11761932_at) / Fold change /veh TUBB4B (11761932_at) / RFU CAPN14 (11732068_a_at) / Fold change /veh CAPN14 (11732068_a_at) / RFU TMCC2 (11721928_a_at) / Fold change /veh TMCC2 (11721928_a_at) / RFU IRGQ (11745062_a_at) / Fold change /veh IRGQ (11745062_a_at) / RFU FAM174B (11720279_a_at) / Fold change /veh FAM174B (11720279_a_at) / RFU TMPRSS4 (11748680_a_at) / Fold change /veh TMPRSS4 (11748680_a_at) / RFU FAM212B (11763350_a_at) / Fold change /veh FAM212B (11763350_a_at) / RFU PLEKHG5 (11743358_a_at) / Fold change /veh PLEKHG5 (11743358_a_at) / RFU ZSCAN30 (11745921_a_at) / Fold change /veh ZSCAN30 (11745921_a_at) / RFU CMKLR1 (11741424_a_at) / Fold change /veh CMKLR1 (11741424_a_at) / RFU LOC101060620 /// MAPK8IP1 (11723275_at) / Fold change /veh LOC101060620 /// MAPK8IP1 (11723275_at) / RFU SPTSSB (11747773_x_at) / Fold change /veh SPTSSB (11747773_x_at) / RFU PRSS12 (11739890_at) / Fold change /veh PRSS12 (11739890_at) / RFU BIN1 (11741810_x_at) / Fold change /veh BIN1 (11741810_x_at) / RFU WNT11 (11732464_a_at) / Fold change /veh WNT11 (11732464_a_at) / RFU C10orf10 (11716521_a_at) / Fold change /veh C10orf10 (11716521_a_at) / RFU C5orf56 (11738089_at) / Fold change /veh C5orf56 (11738089_at) / RFU CYB561 (11721691_x_at) / Fold change /veh CYB561 (11721691_x_at) / RFU ANKRD19P (11752326_a_at) / Fold change /veh ANKRD19P (11752326_a_at) / RFU OR2T12 /// OR2T33 /// OR2T8 (11738714_s_at) / Fold change /veh OR2T12 /// OR2T33 /// OR2T8 (11738714_s_at) / RFU VCAN (11748164_a_at) / Fold change /veh VCAN (11748164_a_at) / RFU JSRP1 (11732532_at) / Fold change /veh JSRP1 (11732532_at) / RFU KRTAP10-11 (11738290_x_at) / Fold change /veh KRTAP10-11 (11738290_x_at) / RFU MYO3A (11730013_a_at) / Fold change /veh MYO3A (11730013_a_at) / RFU EBF3 (11725865_a_at) / Fold change /veh EBF3 (11725865_a_at) / RFU CAMK2N1 (11719241_x_at) / Fold change /veh CAMK2N1 (11719241_x_at) / RFU C5orf56 (11738088_a_at) / Fold change /veh C5orf56 (11738088_a_at) / RFU OLFML3 (11715873_a_at) / Fold change /veh OLFML3 (11715873_a_at) / RFU LOC100653217 /// NTM (11731650_a_at) / Fold change /veh LOC100653217 /// NTM (11731650_a_at) / RFU MAPK11 (11762145_a_at) / Fold change /veh MAPK11 (11762145_a_at) / RFU FIZ1 (11724087_x_at) / Fold change /veh FIZ1 (11724087_x_at) / RFU OASL (11726364_x_at) / Fold change /veh OASL (11726364_x_at) / RFU SOX15 (11748057_x_at) / Fold change /veh SOX15 (11748057_x_at) / RFU CD79A (11719716_a_at) / Fold change /veh CD79A (11719716_a_at) / RFU HIST1H1D (11736915_at) / Fold change /veh HIST1H1D (11736915_at) / RFU CASKIN2 (11723855_a_at) / Fold change /veh CASKIN2 (11723855_a_at) / RFU LOC730098 (11760151_x_at) / Fold change /veh LOC730098 (11760151_x_at) / RFU OR4N2 (11742367_at) / Fold change /veh OR4N2 (11742367_at) / RFU PRRT2 (11749266_a_at) / Fold change /veh PRRT2 (11749266_a_at) / RFU SNX32 (11753110_a_at) / Fold change /veh SNX32 (11753110_a_at) / RFU CDHR5 (11726645_a_at) / Fold change /veh CDHR5 (11726645_a_at) / RFU RCAN1 (11760418_a_at) / Fold change /veh RCAN1 (11760418_a_at) / RFU FAM167A (11723789_a_at) / Fold change /veh FAM167A (11723789_a_at) / RFU FAM26E (11764081_at) / Fold change /veh FAM26E (11764081_at) / RFU ISYNA1 (11749810_s_at) / Fold change /veh ISYNA1 (11749810_s_at) / RFU ACY1 (11761880_at) / Fold change /veh ACY1 (11761880_at) / RFU 11764098_at / Fold change /veh 11764098_at / RFU SAMD14 (11745864_x_at) / Fold change /veh SAMD14 (11745864_x_at) / RFU NPB (11741838_a_at) / Fold change /veh NPB (11741838_a_at) / RFU TMPRSS6 (11731388_a_at) / Fold change /veh TMPRSS6 (11731388_a_at) / RFU KRTAP10-2 (11738614_at) / Fold change /veh KRTAP10-2 (11738614_at) / RFU ARHGAP8 /// PRR5-ARHGAP8 (11727945_x_at) / Fold change /veh ARHGAP8 /// PRR5-ARHGAP8 (11727945_x_at) / RFU KRTAP5-7 /// NADSYN1 (11734609_at) / Fold change /veh KRTAP5-7 /// NADSYN1 (11734609_at) / RFU RASL12 (11751679_a_at) / Fold change /veh RASL12 (11751679_a_at) / RFU CDKN2B (11736163_a_at) / Fold change /veh CDKN2B (11736163_a_at) / RFU PRF1 (11729649_at) / Fold change /veh PRF1 (11729649_at) / RFU, ZNF638 /// ZNF638-IT1 / Fold change vs veh, ZNF638 /// ZNF638-IT1 / RFU, PANK3 / Fold change vs veh, PANK3 / RFU, SH3YL1 / Fold change vs veh, SH3YL1 / RFU, ZEB2 / Fold change vs veh, ZEB2 / RFU, NRIP1 / Fold change vs veh, NRIP1 / RFU, PTTG1IP / Fold change vs veh, PTTG1IP / RFU, CAPN2 / Fold change vs veh, CAPN2 / RFU, MED14 / Fold change vs veh, MED14 / RFU, SNORA58 / Fold change vs veh, SNORA58 / RFU, C1orf63 / Fold change vs veh, C1orf63 / RFU, LRRFIP1 / Fold change vs veh, LRRFIP1 / RFU, NDUFAF7 / Fold change vs veh, NDUFAF7 / RFU, SLC12A2 / Fold change vs veh, SLC12A2 / RFU, IBTK / Fold change vs veh, IBTK / RFU, ESF1 / Fold change vs veh, ESF1 / Fold change vs veh, TMEM50B / RFU, TAOK1 / Fold change vs veh, TAOK1 / RFU, ACBD3 / Fold change vs veh, ACBD3 / RFU, TMA16 / Fold change vs veh, TMA16 / RFU, RWDD3 / Fold change vs veh, RWDD3 / RFU, BCAT1 / Fold change vs veh, BCAT1 / RFU, EDEM3 / Fold change vs veh, EDEM3 / RFU, TMEM33 / Fold change vs veh, TMEM33 / RFU, WDR75 / Fold change vs veh, WDR75 / RFU, AHCTF1 / Fold change vs veh, AHCTF1 / RFU, TFRC / Fold change vs veh, TFRC / RFU, ZDHHC17 / Fold change vs veh, ZDHHC17 / RFU, NOM1 / Fold change vs veh, NOM1 / RFU, ARL8B / Fold change vs veh, ARL8B / RFU, ZBTB11 / Fold change vs veh, ZBTB11 / RFU, TAMM41 / Fold change vs veh, TAMM41 / RFU, KIAA1704 /// LOC100996395 / Fold change vs veh, KIAA1704 /// LOC100996395 / RFU, ING1 / Fold change vs veh, ING1 / RFU, TRMT61B / Fold change vs veh, TRMT61B / RFU, FUBP3 / Fold change vs veh, FUBP3 / RFU, TP53 / Fold change vs veh, TP53 / RFU, TNKS2 / Fold change vs veh, TNKS2 / RFU, ZFP14 / Fold change vs veh, ZFP14 / RFU, ACTR2 / Fold change vs veh, ACTR2 / RFU, PPP3R1 / Fold change vs veh, PPP3R1 / RFU, PIK3R1 / Fold change vs veh, PIK3R1 / RFU, HNRNPA1 / Fold change vs veh, HNRNPA1 / RFU, RNF170 / Fold change vs veh, RNF170 / RFU, ZNF28 / Fold change vs veh, ZNF28 / RFU, RNGTT / Fold change vs veh, RNGTT / RFU, OGT / Fold change vs veh, OGT / RFU, BRD1 / Fold change vs veh, BRD1 / RFU, MARS / Fold change vs veh, MARS / RFU, ZNF655 / Fold change vs veh, ZNF655 / RFU, FAHD1 / Fold change vs veh, FAHD1 / RFU, BDP1 / Fold change vs veh, BDP1 / RFU, LRRCC1 / Fold change vs veh, LRRCC1 / RFU, ARID1A / Fold change vs veh, ARID1A / RFU, ZNF146 / Fold change vs veh, ZNF146 / RFU, ZNF330 / Fold change vs veh, ZNF330 / RFU, GPN3 / Fold change vs veh, GPN3 / RFU, C9orf123 / Fold change vs veh, C9orf123 / RFU, N4BP2L2 / Fold change vs veh, N4BP2L2 / RFU, ARFIP1 / Fold change vs veh, ARFIP1 / RFU, FAM179B / Fold change vs veh, FAM179B / RFU, BCL10 / Fold change vs veh, BCL10 / RFU, UHRF1BP1L / Fold change vs veh, UHRF1BP1L / RFU, BET1 / Fold change vs veh, BET1 / RFU, CNOT2 / Fold change vs veh, CNOT2 / RFU, ZNF268 / Fold change vs veh, ZNF268 / Fold change vs veh, ZNF507 / RFU, DGCR2 / Fold change vs veh, DGCR2 / RFU, WDSUB1 / Fold change vs veh, WDSUB1 / Fold change vs veh, HSP90B1 /// MIR3652 / RFU, ADSS / Fold change vs veh, ADSS / RFU, GK / Fold change vs veh, GK / RFU, ZNF148 / Fold change vs veh, ZNF148 / RFU, TAF9 / Fold change vs veh, TAF9 / RFU, SLC1A5 / Fold change vs veh, SLC1A5 / RFU, SLMO2 / Fold change vs veh, SLMO2 / RFU, ABCC4 / Fold change vs veh, ABCC4 / RFU, LOC101060439 /// RAP1B / Fold change vs veh, LOC101060439 /// RAP1B / RFU, RFX7 / Fold change vs veh, RFX7 / RFU, GTPBP10 / Fold change vs veh, GTPBP10 / RFU, CNEP1R1 / Fold change vs veh, CNEP1R1 / RFU, BIVM-ERCC5 /// ERCC5 / Fold change vs veh, BIVM-ERCC5 /// ERCC5 / RFU, ILF3 / Fold change vs veh, ILF3 / RFU 11762660_at / Fold change /veh 11762660_at / RFU VCAN (11757783_s_at) / Fold change /veh VCAN (11757783_s_at) / RFU DDX43 (11728927_at) / Fold change /veh DDX43 (11728927_at) / RFU KRT8 (11758188_x_at) / Fold change /veh KRT8 (11758188_x_at) / RFU NKD1 (11759106_at) / Fold change /veh NKD1 (11759106_at) / RFU SRD5A1 (11742802_a_at) / Fold change /veh SRD5A1 (11742802_a_at) / RFU TPSAB1 /// TPSB2 (11721975_s_at) / Fold change /veh TPSAB1 /// TPSB2 (11721975_s_at) / RFU GSTM3 (11746129_a_at) / Fold change /veh GSTM3 (11746129_a_at) / RFU IL23R (11737362_x_at) / Fold change /veh IL23R (11737362_x_at) / RFU TMEM51 (11727254_a_at) / Fold change /veh TMEM51 (11727254_a_at) / RFU PIWIL2 (11732686_x_at) / Fold change /veh PIWIL2 (11732686_x_at) / RFU ORM1 (11744905_x_at) / Fold change /veh ORM1 (11744905_x_at) / RFU CCDC152 (11743942_at) / Fold change /veh CCDC152 (11743942_at) / RFU ECM1 (11717891_a_at) / Fold change /veh ECM1 (11717891_a_at) / RFU IL23R (11748794_a_at) / Fold change /veh IL23R (11748794_a_at) / RFU TNFAIP8L3 (11732012_x_at) / Fold change /veh TNFAIP8L3 (11732012_x_at) / RFU MBOAT4 (11741988_at) / Fold change /veh MBOAT4 (11741988_at) / RFU 11764193_at / Fold change /veh 11764193_at / RFU TMEM53 (11763286_at) / Fold change /veh TMEM53 (11763286_at) / RFU MAGEB2 (11727129_at) / Fold change /veh MAGEB2 (11727129_at) / RFU TMEM200A (11744735_a_at) / Fold change /veh TMEM200A (11744735_a_at) / RFU CCDC152 (11751479_a_at) / Fold change /veh CCDC152 (11751479_a_at) / RFU FAM211A (11726209_a_at) / Fold change /veh FAM211A (11726209_a_at) / RFU RGS16 (11746705_a_at) / Fold change /veh RGS16 (11746705_a_at) / RFU VCAN (11755009_s_at) / Fold change /veh VCAN (11755009_s_at) / RFU RHOB (11743442_s_at) / Fold change /veh RHOB (11743442_s_at) / RFU RGS16 (11720943_a_at) / Fold change /veh RGS16 (11720943_a_at) / RFU RGS16 (11720944_at) / Fold change /veh RGS16 (11720944_at) / RFU, VPS4B / Fold change vs veh, VPS4B / RFU, CREB1 / Fold change vs veh, CREB1 / RFU, DNAJC13 / Fold change vs veh, DNAJC13 / RFU, GNAQ / Fold change vs veh, GNAQ / RFU, CDK5R1 / Fold change vs veh, CDK5R1 / RFU, ZRANB3 / Fold change vs veh, ZRANB3 / RFU, CUL4A / Fold change vs veh, CUL4A / RFU, CCNY / Fold change vs veh, CCNY / RFU, UFL1 / Fold change vs veh, UFL1 / RFU, COG3 / Fold change vs veh, COG3 / RFU, DIAPH2 / Fold change vs veh, DIAPH2 / RFU, SKA2 / Fold change vs veh, SKA2 / RFU, AFF3 / Fold change vs veh, AFF3 / RFU, LMF1 / Fold change vs veh, LMF1 / RFU, IPO11 / Fold change vs veh, IPO11 / RFU, DFFB / Fold change vs veh, DFFB / RFU, FOXP1 / Fold change vs veh, FOXP1 / RFU, CARD8 / Fold change vs veh, CARD8 / RFU, STRN3 / Fold change vs veh, STRN3 / RFU, ADK / Fold change vs veh, ADK / RFU, RASSF2 / Fold change vs veh, RASSF2 / RFU, WIPF1 / Fold change vs veh, WIPF1 / RFU, LARP1B / Fold change vs veh, LARP1B / RFU, RASA1 / Fold change vs veh, RASA1 / RFU, RB1 / Fold change vs veh, RB1 / RFU, PPFIA1 / Fold change vs veh, PPFIA1 / RFU, MAT2A / Fold change vs veh, MAT2A / RFU, CCT5 / Fold change vs veh, CCT5 / RFU, WDR92 / Fold change vs veh, WDR92 / RFU, CUX1 / Fold change vs veh, CUX1 / RFU, TTC7A / Fold change vs veh, TTC7A / RFU, TMEM135 / Fold change vs veh, TMEM135 / RFU, DEPTOR / Fold change vs veh, DEPTOR / RFU, CPM / Fold change vs veh, CPM / RFU, DNAJB6 / Fold change vs veh, DNAJB6 / RFU, CACNA2D3 / Fold change vs veh, CACNA2D3 / RFU, DTX4 / Fold change vs veh, DTX4 / RFU, TFCP2 / Fold change vs veh, TFCP2 / RFU, GMCL1 /// GMCL1P1 / Fold change vs veh, GMCL1 /// GMCL1P1 / RFU, AEBP2 / Fold change vs veh, AEBP2 / RFU, SNHG1 /// SNORD22 /// SNORD25 /// SNORD26 /// SNORD27 /// SNORD28 /// SNORD29 /// SNORD31 / Fold change vs veh, SNHG1 /// SNORD22 /// SNORD25 /// SNORD26 /// SNORD27 /// SNORD28 /// SNORD29 /// SNORD31 / Fold change (Aza/veh), C12orf56 (ProbeSet 11735607_a_at) / Fold change (ACY-1035/veh), C12orf56 (ProbeSet 11735607_a_at) / Fold change (Aza/veh), FGFR1OP (ProbeSet 11751329_s_at) / Fold change (ACY-1035/veh), FGFR1OP (ProbeSet 11751329_s_at) / Fold change (Aza/veh), VPS36 (ProbeSet 11739960_a_at) / Fold change (ACY-1035/veh), VPS36 (ProbeSet 11739960_a_at) / RFU SYPL1 (11715823_x_at) / Fold change /veh SYPL1 (11715823_x_at) / RFU IGFBP7 (11715501_s_at) / Fold change /veh IGFBP7 (11715501_s_at) / RFU REEP3 (11722064_at) / Fold change /veh REEP3 (11722064_at) / RFU IGLL1 (11728026_x_at) / Fold change /veh IGLL1 (11728026_x_at): dose or concentration left out as unconfirmed
Details: MV-4-11 cells, 48 hours

Nc1ccc(-c2cccs2)cc1NC(=O)c1ccc2c(c1)cc(C1CC1)n2CCN1CCOCC1 [ACY-1035]
Fold change /veh CD79A (11719716_a_at): 1.12
